The values below are quoted from earlier work in patent publication US20120028929A1, “TETRACYCLINE STABILIZING FORMULATIONS” (ALACRITY BIOSCIENCE, INC., priority 2008, published 2012).

The conditions of this data set: previous studies; cited from earlier work.

For the compound `C[C@H]1c2cccc(O)c2C(O)=C2C(=O)[C@]3(O)C(O)=C(C(N)=O)C(=O)[C@H](N(C)C)[C@@H]3[C@@H](O)[C@@H]21` [4-epidoxycycline], the “function as an antibiotic” value is “does not function as an antibiotic”.
